# Source: patent publication US6875759B1, “Substituted guanidines and the use thereof” (Kadmus Pharmaceuticals, priority 1999, dated 2005)
# What was measured:
# [1] = system: normal human endothelial cells (AH-9); experiment: In vitro cytotoxicity, MTS assay, normal endothelial cells; type: cell-based; settings: AH-9 normal endothelial cells; separate experiment (FIG. 1); seven days; read-out: EC50 cytotoxic activity
# Description: FIG. 1 is a graph which compares the effects of the compound of Example 8 on normal human endothelial cells (AH-9) and human prostate cancer cells (DU145). Cells were exposed to the compound for seven days at the concentrations indicated. Cytotoxicity was assessed using the MTS assay.
# In a separate experiment (FIG. 1), normal human endothelial cells (AH-9) and human prostate cancer cells (DU145) were exposed to increasing concentrations of the compound of Example 8 for seven days.
# [2] = system: human prostate (DU145) cancer cells; experiment: Mitochondrial membrane depolarization, JC-1 flow cytometry, prostate cancer cells; type: cell-based; settings: 25 μM, five hours following drug exposure
# Description: FIGS. 5D-5F illustrate the effects of compound of Example 8 on human prostate cancer cells (DU145). Mitochondrial membrane depolarization was assessed by flow cytometry as measured by the fluorescence of cation, JC-1. Cells were exposed to 25 μM of the compound and fluorescence measured at: 0 hours (FIG. 5D), 2.5 hours (FIG. 5E) and 4.5 hours (FIG. 5F).
# Mitochondrial membrane depolarization is an early event in apoptosis. […] These early changes in mitochondrial function can be detected using a fluorescent cation, JC-1, that emits a red color when sequestered in the mitochondria of healthy cells, or a green color when localized to the cytoplasm.
# Human breast (HS578-T) and prostate (DU145) cancer cells were exposed to 25 μM of the compound of Example 8 for varying lengths of times. Both cell lines lost the capacity to sequester JC-1 in the mitochondrial compartment as indicated by a time-dependent increase in green vs. red fluorescence (FIGS. 5A-5F). In an attempt to better quantitate the results of these experiments, the scans were divided into quadrants. At time 0, greater than 90% of the dye was localized in the mitochondria in both breast and prostate cancer cells. By five hours following drug exposure, the mitochondria from the prostate and breast cells contained only 33% and 22% of the dye, respectively.
# [3] = system: pancreas cancer cell line HS766T; experiment: In vitro cytotoxicity, MTS assay, pancreas cancer cells; type: cell-based, human; settings: 7 days exposure, dose causing death to 50% of cells, read-out: Cell Survival ED 50 Pancreas
# Description: In these experiments, cells were seeded at 400 cells per well 24 hours prior to addition of the test compound. Cells were grown at 37° C. in a humidified atmosphere of 95% air, 5% CO2 for 7 days with daily media changes. Cytotoxicity was assessed using the CellTiter 96 Aqueous Proliferation Assay (Promega, Madison, Wis.).
# [4] = system: HS578T breast cancer cells; experiment: DNA fragmentation, TUNEL assay by flow cytometry; type: cell-based, human; settings: 12.5 or 25 μM for 24 hours
# Description: FIGS. 4A-4C illustrate the effects of compound of Example 8 on HS578-T breast carcinoma cells. Cells were exposed to the compound at zero μM (FIG. 4A), 12.5 μM (FIG. 4B) or 25 μM (FIG. 4C) for 24 hours, and the degree of DNA fragmentation measured by flow cytometry using the TUNEL assay.
# The TUNEL assay examines DNA fragmentation using flow cytometry to detect DNA that is labeled with fluorescein dUTP compared to the total nuclear DNA content of the cell as measured using propidium iodide. Human HS578T breast cancer cells were treated with either 12.5 or 25 μM of the compound of Example 8 for 24 hours. As cells undergo apoptosis, DNA fragmentation occurs in a relatively intact nucleus, giving rise to a higher fluorescent intensity (x-axis) with stable staining by propidium iodide (y-axis).
compound,measurement,setting,value
"Cc1ccc(N=C(Nc2ccc(C)cc2)N2CCN(C/C=C/c3ccccc3)CC2)cc1 [Example 8, 1-[(N,N′-Di-p-tolyl)amidino]-(trans-1′-cinnamyl)piperizine]",EC50,[1],95 µM
same,JC-1 dye contained in mitochondria,[2],33%
same,EC50,[3],1.8 µM
same,DNA fragmentation (TUNEL),[4],pattern of DNA fragmentation characteristic of apoptosis
